Experimental data published in ChEMBL document CHEMBL2417425, “Design and synthesis of positional isomers of 5 and 6-bromo-1-[(phenyl)sulfonyl]-2-[(4-nitrophenoxy)methyl]-1H-benzimidazoles as possible antimicrobial and antitubercular agents” (2013).
In brackets after ≈: the same amount, converted by molar mass.

Tests used:
Format in all cases: functional
[1] = system: Mycolicibacterium fortuitum; experiment: Antimycobacterial activity against Mycobacterium fortuitum ATCC 19542 assessed as growth inhibition at 0.3125 to 5 ug/mL by resazurin assay
[2] = system: Mycobacterium tuberculosis; experiment: Antimycobacterial activity against Mycobacterium tuberculosis H37Rv assessed as growth inhibition at 0.3125 to 5 ug/mL by resazurin assay
[3] = system: Mycolicibacterium fortuitum; experiment: Antimycobacterial activity against Mycobacterium fortuitum ATCC 19542 assessed as growth inhibition at 1 to 100 ug/mL by resazurin assay
[4] = system: Mycolicibacterium smegmatis; experiment: Antimycobacterial activity against Mycobacterium smegmatis ATCC 19420 assessed as growth inhibition at 1 to 100 ug/mL by resazurin assay
[5] = system: Mycobacterium tuberculosis; experiment: Antimycobacterial activity against Mycobacterium tuberculosis H37Rv assessed as growth inhibition at 1 to 100 ug/mL by resazurin assay; conditions: for MIC: Mycobacterium tuberculosis, H37Rv
[6] = system: Rhizopus; experiment: Antifungal activity against Rhizopus sp. assessed as growth inhibition by serial dilution method
[7] = system: Aspergillus flavus; experiment: Antifungal activity against Aspergillus flavus assessed as growth inhibition by serial dilution method
[8] = system: Candida albicans; experiment: Antifungal activity against Candida albicans assessed as growth inhibition by serial dilution method
[9] = system: Klebsiella pneumoniae; experiment: Antibacterial activity against Klebsiella pneumoniae assessed as growth inhibition by serial dilution method
[10] = system: Escherichia coli; experiment: Antibacterial activity against Escherichia coli assessed as growth inhibition by serial dilution method
[11] = system: Staphylococcus aureus; experiment: Antibacterial activity against Staphylococcus aureus assessed as growth inhibition by serial dilution method
[12] = system: Mycolicibacterium smegmatis; experiment: Antimycobacterial activity against Mycobacterium smegmatis ATCC 19420 assessed as growth inhibition at 0.3125 to 5 ug/mL by resazurin assay

Cc1cccc(S(=O)(=O)n2c(COc3ccc([N+](=O)[O-])cc3)nc3cc(Br)ccc32)c1
MIC [1]: 10 µg/mL (≈ 19.9 µM)
MIC [2]: 1.25 µg/mL (≈ 2.49 µM)
MIC [3]: 10 µg/mL (≈ 19.9 µM)
MIC [4]: 10 µg/mL (≈ 19.9 µM)
growth inhibition (GI) [5]: 90%
MIC [5]: > 100 µg/mL
MIC [6]: 128 µg/mL (≈ 255 µM)
MIC [7]: > 256 µg/mL
MIC [8]: 64 µg/mL (≈ 127 µM)
MIC [9]: > 256 µg/mL
MIC [10]: 64 µg/mL (≈ 127 µM)
MIC [11]: 128 µg/mL (≈ 255 µM)

COc1ccc(OC)c(S(=O)(=O)n2c(COc3ccc([N+](=O)[O-])cc3)nc3ccc(Br)cc32)c1
MIC [12]: 10 µg/mL (≈ 18.2 µM)
MIC [2]: 5 µg/mL (≈ 9.12 µM)
MIC [3]: > 100 µg/mL
MIC [4]: 10 µg/mL (≈ 18.2 µM)
growth inhibition (GI) [5]: <90%
MIC [5]: 10 µg/mL (≈ 18.2 µM)
MIC [6]: 128 µg/mL (≈ 233 µM)
MIC [7]: 256 µg/mL (≈ 467 µM)
MIC [8]: > 256 µg/mL
MIC [9]: 128 µg/mL (≈ 233 µM)
MIC [10]: > 256 µg/mL
MIC [11]: 256 µg/mL (≈ 467 µM)

O=[N+]([O-])c1ccc(OCc2nc3ccc(Br)cc3n2S(=O)(=O)c2ccc(Cl)cc2Cl)cc1
MIC [3]: > 100 µg/mL
MIC [4]: > 100 µg/mL
growth inhibition (GI) [5]: 0%
MIC [5]: > 100 µg/mL
MIC [6]: > 256 µg/mL
MIC [7]: 128 µg/mL (≈ 230 µM)
MIC [8]: > 256 µg/mL
MIC [9]: 256 µg/mL (≈ 459 µM)
MIC [10]: > 256 µg/mL
MIC [11]: 64 µg/mL (≈ 115 µM)

O=[N+]([O-])c1ccc(OCc2nc3cc(Br)ccc3n2S(=O)(=O)c2ccc(Cl)cc2Cl)cc1
MIC [2]: 5 µg/mL (≈ 8.97 µM)
MIC [3]: > 100 µg/mL
MIC [4]: 10 µg/mL (≈ 17.9 µM)
growth inhibition (GI) [5]: <90%
MIC [5]: > 100 µg/mL
MIC [6]: 128 µg/mL (≈ 230 µM)
MIC [7]: 64 µg/mL (≈ 115 µM)
MIC [8]: 128 µg/mL (≈ 230 µM)
MIC [9]: 64 µg/mL (≈ 115 µM)
MIC [10]: 4 µg/mL (≈ 7.18 µM)
MIC [11]: 8 µg/mL (≈ 14.4 µM)

Nc1ccc(OCc2nc3cc(Br)ccc3[nH]2)cc1
MIC [12]: 10 µg/mL (≈ 31.4 µM)
MIC [2]: 5 µg/mL (≈ 15.7 µM)
MIC [3]: > 100 µg/mL
MIC [4]: 10 µg/mL (≈ 31.4 µM)
growth inhibition (GI) [5]: <90%
MIC [5]: 10 µg/mL (≈ 31.4 µM)
MIC [6]: 256 µg/mL (≈ 805 µM)
MIC [7]: 128 µg/mL (≈ 402 µM)
MIC [8]: 64 µg/mL (≈ 201 µM)
MIC [9]: 128 µg/mL (≈ 402 µM)
MIC [10]: 128 µg/mL (≈ 402 µM)
MIC [11]: 64 µg/mL (≈ 201 µM)

O=[N+]([O-])c1ccc(OCc2nc3ccc(Br)cc3n2S(=O)(=O)c2cc(Cl)ccc2Cl)cc1
MIC [1]: 10 µg/mL (≈ 17.9 µM)
MIC [2]: 10 µg/mL (≈ 17.9 µM)
MIC [3]: 10 µg/mL (≈ 17.9 µM)
MIC [4]: > 100 µg/mL
growth inhibition (GI) [5]: 90%
MIC [5]: 10 µg/mL (≈ 17.9 µM)
MIC [6]: 128 µg/mL (≈ 230 µM)
MIC [7]: 256 µg/mL (≈ 459 µM)
MIC [8]: > 256 µg/mL
MIC [9]: 128 µg/mL (≈ 230 µM)
MIC [10]: 128 µg/mL (≈ 230 µM)
MIC [11]: 64 µg/mL (≈ 115 µM)

O=[N+]([O-])c1ccc(OCc2nc3ccc(Br)cc3n2S(=O)(=O)c2ccccc2[N+](=O)[O-])cc1
MIC [1]: 1.25 µg/mL (≈ 2.34 µM)
MIC [12]: 1.25 µg/mL (≈ 2.34 µM)
MIC [2]: 1.25 µg/mL (≈ 2.34 µM)
MIC [3]: 10 µg/mL (≈ 18.8 µM)
MIC [4]: 1 µg/mL (≈ 1.88 µM)
growth inhibition (GI) [5]: 90%
MIC [5]: 1 µg/mL (≈ 1.88 µM)
MIC [6]: 256 µg/mL (≈ 480 µM)
MIC [7]: > 256 µg/mL
MIC [8]: > 256 µg/mL
MIC [9]: 256 µg/mL (≈ 480 µM)
MIC [10]: 128 µg/mL (≈ 240 µM)
MIC [11]: > 256 µg/mL

N#Cc1cccc(S(=O)(=O)n2c(COc3ccc([N+](=O)[O-])cc3)nc3cc(Br)ccc32)c1
MIC [2]: 5 µg/mL (≈ 9.74 µM)
MIC [3]: > 100 µg/mL
MIC [4]: 10 µg/mL (≈ 19.5 µM)
growth inhibition (GI) [5]: <90%
MIC [5]: > 100 µg/mL
MIC [6]: 128 µg/mL (≈ 249 µM)
MIC [7]: 128 µg/mL (≈ 249 µM)
MIC [8]: 64 µg/mL (≈ 125 µM)
MIC [9]: 128 µg/mL (≈ 249 µM)
MIC [10]: 64 µg/mL (≈ 125 µM)
MIC [11]: 128 µg/mL (≈ 249 µM)

CO[C@H]1/C=C/O[C@@]2(C)Oc3c(C)c(O)c4c(O)c(c(/C=N/N5CCN(C)CC5)c(O)c4c3C2=O)NC(=O)/C(C)=C\C=C\[C@H](C)[C@H](O)[C@@H](C)[C@@H](O)[C@@H](C)[C@H](OC(C)=O)[C@@H]1C [RIFAMPIN]
MIC [1]: 1.5 µg/mL (≈ 1.82 µM)
MIC [12]: 1.5 µg/mL (≈ 1.82 µM)
MIC [2]: 0.5 µg/mL (≈ 0.608 µM)
MIC [3]: 1.5 µg/mL (≈ 1.82 µM)
MIC [4]: 1.5 µg/mL (≈ 1.82 µM)
growth inhibition (GI) [5]: 95%
MIC [5]: 0.5 µg/mL (≈ 0.608 µM)

N#Cc1cccc(S(=O)(=O)n2c(COc3ccc([N+](=O)[O-])cc3)nc3ccc(Br)cc32)c1
MIC [2]: 5 µg/mL (≈ 9.74 µM)
MIC [3]: > 100 µg/mL
MIC [4]: 10 µg/mL (≈ 19.5 µM)
growth inhibition (GI) [5]: <90%
MIC [5]: > 100 µg/mL
MIC [6]: 128 µg/mL (≈ 249 µM)
MIC [7]: > 256 µg/mL
MIC [8]: 128 µg/mL (≈ 249 µM)
MIC [9]: 256 µg/mL (≈ 499 µM)
MIC [10]: > 256 µg/mL
MIC [11]: 256 µg/mL (≈ 499 µM)

COc1ccc(OC)c(S(=O)(=O)n2c(COc3ccc([N+](=O)[O-])cc3)nc3cc(Br)ccc32)c1
MIC [1]: 1.25 µg/mL (≈ 2.28 µM)
MIC [12]: 1.25 µg/mL (≈ 2.28 µM)
MIC [2]: 1.25 µg/mL (≈ 2.28 µM)
MIC [3]: 10 µg/mL (≈ 18.2 µM)
MIC [4]: 1 µg/mL (≈ 1.82 µM)
growth inhibition (GI) [5]: 90%
MIC [5]: 1 µg/mL (≈ 1.82 µM)
MIC [6]: 256 µg/mL (≈ 467 µM)
MIC [7]: 64 µg/mL (≈ 117 µM)
MIC [8]: 128 µg/mL (≈ 233 µM)
MIC [9]: 256 µg/mL (≈ 467 µM)
MIC [10]: 128 µg/mL (≈ 233 µM)
MIC [11]: 128 µg/mL (≈ 233 µM)

Cc1cccc(S(=O)(=O)n2c(COc3ccc([N+](=O)[O-])cc3)nc3ccc(Br)cc32)c1
MIC [2]: 5 µg/mL (≈ 9.95 µM)
MIC [3]: > 100 µg/mL
MIC [4]: 10 µg/mL (≈ 19.9 µM)
growth inhibition (GI) [5]: <90%
MIC [5]: > 100 µg/mL
MIC [6]: > 256 µg/mL
MIC [7]: > 256 µg/mL
MIC [8]: 256 µg/mL (≈ 510 µM)
MIC [9]: > 256 µg/mL
MIC [10]: 128 µg/mL (≈ 255 µM)
MIC [11]: > 256 µg/mL

O=[N+]([O-])c1ccc(OCc2nc3ccc(Br)cc3n2S(=O)(=O)c2ccccc2Cl)cc1
MIC [3]: > 100 µg/mL
MIC [4]: > 100 µg/mL
growth inhibition (GI) [5]: 0%
MIC [5]: > 100 µg/mL
MIC [6]: > 256 µg/mL
MIC [7]: > 256 µg/mL
MIC [8]: 128 µg/mL (≈ 245 µM)
MIC [9]: 256 µg/mL (≈ 490 µM)
MIC [10]: > 256 µg/mL
MIC [11]: 128 µg/mL (≈ 245 µM)

NNC(=O)c1ccncc1 [ISONIAZID]
MIC [1]: 12.5 µg/mL (≈ 91.1 µM)
MIC [12]: 50 µg/mL (≈ 365 µM)
MIC [2]: 0.7 µg/mL (≈ 5.1 µM)
MIC [3]: 12.5 µg/mL (≈ 91.1 µM)
MIC [4]: 50 µg/mL (≈ 365 µM)
growth inhibition (GI) [5]: 95%
MIC [5]: 0.7 µg/mL (≈ 5.1 µM)

Cc1c(F)cccc1S(=O)(=O)n1c(COc2ccc([N+](=O)[O-])cc2)nc2ccc(Br)cc21
MIC [2]: 1.25 µg/mL (≈ 2.4 µM)
MIC [3]: > 100 µg/mL
MIC [4]: > 100 µg/mL
growth inhibition (GI) [5]: <90%
MIC [5]: 10 µg/mL (≈ 19.2 µM)
MIC [6]: 256 µg/mL (≈ 492 µM)
MIC [7]: > 256 µg/mL
MIC [8]: 256 µg/mL (≈ 492 µM)
MIC [9]: > 256 µg/mL
MIC [10]: 256 µg/mL (≈ 492 µM)
MIC [11]: > 256 µg/mL

C[C@@H]1[C@H](O)[C@@H](C)/C=C/C=C/C=C/C=C/C=C/C=C/C=C/[C@H](O[C@@H]2O[C@H](C)[C@@H](O)[C@H](N)[C@@H]2O)C[C@@H]2O[C@](O)(C[C@@H](O)C[C@@H](O)[C@H](O)CC[C@@H](O)C[C@@H](O)CC(=O)O[C@H]1C)C[C@H](O)[C@H]2C(=O)O [AMPHOTERICIN B]
MIC [6]: 16 µg/mL (≈ 17.3 µM)
MIC [7]: 8 µg/mL (≈ 8.66 µM)
MIC [8]: 8 µg/mL (≈ 8.66 µM)

O=C(O)c1cn(C2CC2)c2cc(N3CCNCC3)c(F)cc2c1=O [CIPROFLOXACIN]
MIC [9]: 16 µg/mL (≈ 48.3 µM)
MIC [11]: 8 µg/mL (≈ 24.1 µM)

COc1ccc(S(=O)(=O)n2c(COc3ccc([N+](=O)[O-])cc3)nc3ccc(Br)cc32)c(OC)c1
MIC [12]: 2.5 µg/mL (≈ 4.56 µM)
MIC [2]: 2.5 µg/mL (≈ 4.56 µM)
MIC [3]: > 100 µg/mL
MIC [4]: 10 µg/mL (≈ 18.2 µM)
growth inhibition (GI) [5]: <90%
MIC [5]: 10 µg/mL (≈ 18.2 µM)
MIC [6]: 128 µg/mL (≈ 233 µM)
MIC [7]: 256 µg/mL (≈ 467 µM)
MIC [8]: > 256 µg/mL
MIC [9]: 128 µg/mL (≈ 233 µM)
MIC [10]: 256 µg/mL (≈ 467 µM)
MIC [11]: > 256 µg/mL
